Experimental data reported in patent US8008333B2, “Single dose aromatase inhibitor for treating infertility” (Ares Trading S.A., priority 2001, dated 2011).
Structures can show the parent of a compound that is named as a salt. Where two headings read alike, the source gives them in different places.

Assays:
[1] = test system: endometrium of normal women; conditions: reduction in glandular density, increase in vacuolated cells; cited from earlier work
ovulatory women = conditions: ovulatory group, one patient; cited from earlier work
[2] = test system: low responders during ovarian stimulation; assay: letrozole with FSH stimulation in low responders; type: in vivo, human
women with PCOS = conditions: PCOS group, cited from earlier work
[3] = in vivo; cited from earlier work
[4] = test system: ovulatory women with unexplained infertility and anovulatory women with PCOS; assay: letrozole in conjunction with FSH for controlled ovarian super ovulation; type: in vivo, human
[5] = test system: infertile patients (PCOS, unexplained infertility)
Description: HCG 10,000 IU was given to trigger ovulation. Follicular development was monitored by transvaginal ultrasound and hormonal assays of estrogen and LH.

| Structure (SMILES) | effect on the endometrium [1] | pregnancy (ovulatory women) | ovarian response to FSH stimulation [2] | pregnancy (women with PCOS; 3 patients) | ovulation (women with PCOS; 9 of 12 cycles) | half-life [3] | FSH dose required for achievement of adequate ovarian super ovulation [4] | Endometrial thickness on hCG day ([5]; Letrozole 5 days cycle) | Estradiol on hCG day ([5]; Letrozole 5 days cycle) | Estradiol/mature follicle ([5]; Letrozole 5 days cycle) | Follicles >1.5 cm ([5]; Letrozole 5 days cycle) | LH ([5]; Letrozole 5 days cycle) | Endometrial thickness on hCG day ([5]; Letrozole single-dose cycles) | Estradiol on hCG day ([5]; Letrozole single-dose cycles) | Estradiol/mature follicle ([5]; Letrozole single-dose cycles) | Follicles >1.5 cm ([5]; Letrozole single-dose cycles) | LH ([5]; Letrozole single-dose cycles) | ovulation ([5]; single 20 mg dose on day 3, out of the 9 single-dose treatment cycles) | pregnancy achieved ([5]; single 20 mg dose on day 3, seven patients) | characteristics of the single dose treatment cycles versus the 5-day treatment cycles ([5]; single 20 mg dose vs […] for 5 days) |
| --- | --- | --- | --- | --- | --- | --- | --- | --- | --- | --- | --- | --- | --- | --- | --- | --- | --- | --- | --- | --- |
| CCN(CC)CCOc1ccc(C(=C(Cl)c2ccccc2)c2ccccc2)cc1 [CC, clomiphene citrate] | deleterious effect on the endometrium |  |  |  |  |  |  |  |  |  |  |  |  |  |  |  |  |  |  |  |
| N#Cc1ccc(C(c2ccc(C#N)cc2)n2cncn2)cc1 [letrozole] |  | 10% | improvement | 25% | 75% | around two | significantly lower | 0.9 (0.2) cm | 919 (782) pmol/L | 462 (257) pmol/L | 1.9 (0.2) | 18.2 (16.2) IU/L | 0.9 (0.11) cm | 831 (359) pmol/L | 390 (74) pmol/L | 2.29 (1.3) | 19.1 (12.7) IU/L | 8 cycles | one | no significant difference |
